These results are taken from publication PMC10142558, “In Silico and In Vivo Studies of a Tumor-Penetrating and Interfering Peptide with Antitumoral Effect on Xenograft Models of Breast Cancer” (Pharmaceutics, 2023).

Non-standard residues stand in square brackets, D forms with d. Residues, ends and D or L forms follow the SMILES beside them. Ahx = NCCCCCC(=O)O

The data set in a line: Peptide stability in human serum. The class given is in vitro ADME. The note with it: human serum (Gibco), 37 °C, intact peptide by MALDI-TOF MS, triplicate, mean; for remaining at 6 h: 6 h incubation, read-out: percentage of peptide recovered in human serum, 6 h; for remaining at 24 h: 24 h incubation, read-out: percentage of peptide recovered in human serum, 24 h. The procedure: The peptide TT1-IP was incubated at 37 °C in […] of human serum (Gibco, Illikirch, France) for different periods of time. Samples were collected and peptide degradation stopped by freezing at −20 °C. The peptide was extracted from samples using the Proteo Miner Protein Enrichment System (Bio-Rad, Marnes-la-Coquette, France). The percentage of intact peptide was estimated by mass spectrometry (MS) using MALDI-TOFF with the protocol previously described (Bruker Autoflex II, Palaiseau, France) according to the manufacturer’s instructions. Measurements were performed in triplicate. MS data were analysed using the software Cliprot tools, Flex analysis, Bruker.
iRGD-IP and Lin TT1-IP were incubated in human serum at 37 °C for different periods of time. The integrity of the peptide was analyzed by mass spectrometry (MS). Every measurement was performed in triplicate. Each value is represented as the mean ± standard deviation (SD). Similar results were obtained in two independent experiments.

Turning to `CC[C@H](C)[C@H](NC(=O)[C@H](CCCNC(=N)N)NC(=O)[C@H](CCC(=O)O)NC(=O)[C@H](CCCNC(=N)N)NC(=O)[C@H](Cc1ccc(O)cc1)NC(=O)[C@H](CCCNC(=N)N)NC(=O)[C@@H](NC(=O)[C@H](CCCCN)NC(=O)[C@H](CC(C)C)NC(=O)[C@H](C)NC(=O)[C@@H](NC(=O)[C@H](CC(C)C)NC(=O)[C@H](CC(C)C)NC(=O)[C@@H](NC(=O)[C@@H](NC(=O)[C@@H](NC(=O)[C@@H](N)CCC(=O)O)[C@@H](C)O)C(C)C)[C@@H](C)O)C(C)C)C(C)C)C(=O)N[C@H](C(=O)NCCCCCC(=O)N[C@@H](C)C(=O)N[C@@H](CCCCN)C(=O)N[C@@H](CCCNC(=N)N)C(=O)NCC(=O)N[C@@H](C)C(=O)N[C@@H](CCCNC(=N)N)C(=O)N[C@@H](CO)C(=O)N[C@H](C(=O)N[C@@H](C)C(N)=O)[C@@H](C)O)[C@@H](C)O` [Lin TT1-IP] (H-ETVTLLVALKVRYRERIT[Ahx]AKRGARSTA-NH2), the remaining at 6 h is 44% and the remaining at 24 h was approximately 30%. Besides, where the note is “3 h incubation, read-out: percentage of peptide recovered in human serum, 3 h”, the remaining at 3 h is approximately 80%.

Turning to `CC[C@H](C)[C@H](NC(=O)[C@H](CCCNC(=N)N)NC(=O)[C@H](CCC(=O)O)NC(=O)[C@H](CCCNC(=N)N)NC(=O)[C@H](Cc1ccc(O)cc1)NC(=O)[C@H](CCCNC(=N)N)NC(=O)[C@@H](NC(=O)[C@H](CCCCN)NC(=O)[C@H](CC(C)C)NC(=O)[C@H](C)NC(=O)[C@@H](NC(=O)[C@H](CC(C)C)NC(=O)[C@H](CC(C)C)NC(=O)[C@@H](NC(=O)[C@@H](NC(=O)[C@@H](NC(=O)[C@@H](N)CCC(=O)O)[C@@H](C)O)C(C)C)[C@@H](C)O)C(C)C)C(C)C)C(=O)N[C@H](C(=O)NCCCCCC(=O)N[C@H]1CSSC[C@@H](C(N)=O)NC(=O)[C@H](CC(=O)O)NC(=O)[C@@H]2CCCN2C(=O)CNC(=O)[C@H](CCCCN)NC(=O)[C@H](CC(=O)O)NC(=O)CNC(=O)[C@H](CCCNC(=N)N)NC1=O)[C@@H](C)O` [iRGD-IP], the remaining at 6 h came out at 77% and the remaining at 24 h was determined as 62%. In addition, where the note is “1 h incubation, read-out: percentage of peptide recovered in human serum, 1 h”, the remaining at 1 h came out at 91%.
